{
  "source": "patent US4795639A",
  "about": "“Potentiating formulations” (priority 1971, dated 1989)",
  "key": {"[1]": {"molecular_target": "T1, hydroxymethyldihydropteridine pyrophosphokinase (HMPPS) (Escherichia coli, UniProt P26281)", "T1 construct": "obtained from an extract of E. coli; endogenous in cells; host or cells: E. coli extract; HMPPS separated from synthetase on Sephadex G-100 (method of Richey and Brown 1969)", "T1 sequence (P26281 whole entry)": "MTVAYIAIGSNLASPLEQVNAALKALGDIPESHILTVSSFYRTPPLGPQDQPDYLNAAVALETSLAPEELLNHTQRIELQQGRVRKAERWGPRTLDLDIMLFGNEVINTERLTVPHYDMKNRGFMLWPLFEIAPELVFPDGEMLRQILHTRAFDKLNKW", "experiment": "HMPPS assay: transfer of terminal phosphate of ATP-γ-P^32 to Pt", "type": "biochemical, E. coli", "excerpt": "(a) An assay for HMPPS was developed in which the transfer of the terminal phosphate of ATP-γ-P^32 to Pt could be monitored and correlated with the amount of inhibition of HMPPS by the compound under test.\nThe compound under test was incorporated into various formulations comprising metabolites and enzymes contained in test tubes, as indicated in TABLE 1.\nII--a source of HMMP S, obtained from an extract of E. coli and separated from `synthetase` on Sephadex G-100, according to the method of Richey and Brown in J. Biol. Chem. 244, 1582-1592 (1969)\n(§1) Control tubes 10 to 12 include a source of both HMPPS and synthetase, unlabelled ATP, 0.1M MgCl2.6H2 O and labelled pAB.\nTubes 1 to 9 containing the amounts of components shown in the Table, were filled up to 200 μl with distilled water, incubated for 60 minutes at 37° C. and then chilled on ice. Dextrose (20 μl containing 72.1 mg/ml) and hexokinase (5 μl containing 2000 units/ml) were added to the solution, which was then allowed to stand at room temperature for 15 minutes. `Darco-G-60` (Registered Trade Mark) (10 mg) was added to each tube and the contents mixed periodically for 10 minutes. The charcoal was removed through a \"Millipore AP 250 2200\" (Registered Trade Mark) filter and the filter was washed with three 10 ml portions of cold water. The Charcoal and the filter were then radioactively counted.\nThe radioactive count from the contents of tubes 2 and 3 was taken as the maximum count, since these tubes contained no test compound and thus gave 0% enzyme inhibition. The percentage inhibition produced by the contents of the remaining tubes could then be calculated by relating their radioactive count to the maximum, as determined above."}, "[2]": {"molecular_target": "T2, dihydropteroate synthetase (Escherichia coli, UniProt P0AC13)", "T2 construct": "incubating an extract of E. coli with pAB-7-C^14; endogenous in cells; host or cells: E. coli extract (synthetase separated from HMPPS on Sephadex G-100, as concluded from part (a))", "T2 sequence (P0AC13 whole entry)": "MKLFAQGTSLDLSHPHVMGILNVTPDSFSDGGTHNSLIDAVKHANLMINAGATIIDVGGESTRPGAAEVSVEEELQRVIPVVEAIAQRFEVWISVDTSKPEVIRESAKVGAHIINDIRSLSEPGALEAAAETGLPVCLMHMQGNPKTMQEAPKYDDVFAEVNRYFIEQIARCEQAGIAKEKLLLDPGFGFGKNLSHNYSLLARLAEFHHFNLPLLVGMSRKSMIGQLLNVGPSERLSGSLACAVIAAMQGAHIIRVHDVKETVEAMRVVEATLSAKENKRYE", "experiment": "`synthetase` assay: formation of dihydropteroate-C^14", "type": "biochemical, E. coli", "method": "(b) The activity of the test compound against `synthetase` was determined as follows, by monitoring the formulation of dihydropteroate-C^14.\nA pool of Pt was prepared from ATP neutralised (50 μl, 0.1M), MgCl2.6H2 O (50 μl, 0.1M), dithiothreitol (100 μl, 0.1M), tris buffer (100 μl, 0.4M, pH 8.3), HMPt (25 μl, 876 μM) and 170 μl of a solution containing HMPPS. The mixture was incubated for 60 minutes at 37° C., chilled briefly on ice and then dextrose (100 μl containing 72.1 mg/ml) and hexokinase (20 μl containing 2000 units/ml) were added at room temperature to the solution, which was allowed to stand at this temperature for 15 minutes.\nA solution of MgCl2.6H2 O (10 μl, 0.1M), pAB-C^14 (10 μl, 0.4 mM), dithiothreitol (20 μl, 0.1M) and tris buffer (20 μl, 0.4M, pH8.3) was made in each of five test tubes and then 80 μl of the contents of the pool added to each, together with synthetase and/or test compound as indicated in TABLE 2. The solution was then made up to 200 μl with distilled water.\n(§2) All seven tubes were then incubated for 30 minutes at 37° C., chilled on ice and then these, together with control tubes 10 to 12 from part (a), were chromatographically analysed as follows:\n(§3) 100 μl of the contents of each of the tubes was spotted onto Whatman No. 3 MM chromatography paper (2×20 cm) at the `origin`, the run descending in a Sorenson buffer of potassium and sodium phosphates (0.1M, pH 7.0) for 10 to 15 cm."}, "HMPPS and `synthetase`": {"tested_on": "HMPPS and `synthetase`", "experiment": "control tubes with source of both HMPPS and `synthetase`, labelled pAB, chromatographic analysis", "type": "biochemical, E. coli", "conditions": "1 × 10^-5 M", "method": "as §1\nTwo control test tubes were prepared, each containing ATP (10 μl, 0.1M), MgCl2.6H2 O (10 μl, 0.1M), dithiothreitol (20 μl, 0.1M) tris buffer (20 μl, 0.4M, pH 8.3), pAB-C^14 (10 μl, 0.4 mM), and 20 μl of a solution containing HMPPS and `synthetase` of known activity. The test compound was added to the second of these two tubes up to a final concentration of 10^-5 M, and both tubes were made up with distilled water to 200 μl.\nas §2, §3"}, "Pseudomonas aeruginosa": {"tested_on": "Pseudomonas aeruginosa", "experiment": "zone inhibition, pteridine in agar, drugs in well", "type": "cell-based", "conditions": "for complete zone inhibition, SMX (300) / zone including partial inhibition, SMX (300): SMX 300 μg/ml; for zone including partial inhibition, TMP (30): TMP 30 μg/ml; for complete zone inhibition, TMP + SMX (5) (100) / zone including partial inhibition, TMP + SMX (5) (100): TMP 5 + SMX 100 μg/ml", "method": "(§4) The pteridine was included in a soya peptone medium of low thymidine content (Wellcotest Sensitivity Test Agar) contained in a Petri-dish and the other component(s) added to the well resulting from the removal of a small plug from the medium. The surface of the medium was inoculated with the test organism and then incubated."}, "Staphylococcus aureus": {"tested_on": "Staphylococcus aureus", "experiment": "zone inhibition, pteridine in agar, drugs in well", "type": "cell-based", "conditions": "for complete zone inhibition, SMX (300) / zone including partial inhibition, SMX (300): SMX 300 μg/ml; for complete zone inhibition, TMP + SMX (5) (100) / zone including partial inhibition, TMP + SMX (5) (100): TMP 5 + SMX 100 μg/ml", "method": "as §4"}, "Escherichia coli CN 314": {"tested_on": "Escherichia coli CN 314", "experiment": "testing discs on standard nutrient medium", "type": "cell-based", "conditions": "Escherichia coli, CN314; read-out: Size of zone in cm (×6 magnification)"}, "Proteus vulgaris CN 329": {"tested_on": "Proteus vulgaris CN 329", "experiment": "testing discs on standard nutrient medium", "type": "cell-based", "conditions": "Proteus vulgaris, CN329; read-out: Size of zone in cm (×6 magnification)"}, "[3]": {"conditions": "final concn. 0.93 × 10^-4 M, tubes 8, 9"}, "[4]": {"conditions": "pteridine 3 μg/ml, TMP 30 μg/ml"}, "[5]": {"conditions": "pteridine 10 μg/ml, TMP 30 μg/ml"}},
  "note": "Where “and” joins values, the source holds several entries; their conditions need not be identical. Equal entries are not always repeated.",
  "data": [
    {"smiles": "CC1(C)Nc2nc(N)nc(O)c2N=C1CO", "note": "[DMHP, 2-amino-4-hydroxy-6-hydroxymethyl-7,7-dimethyl-7,8-dihydropteridine]", "values": [
      {"measurement": "IC50", "setting": "[1]", "value": "2 to 4", "unit": "µM"},
      {"measurement": "% Inhibn.", "setting": "[1]; [3]", "value": 95, "unit": "%"},
      {"measurement": "inhibition at 93 µM", "setting": "[1]; [3]", "value": 98, "unit": "%"},
      {"measurement": "% Inhibn.", "setting": "[1]; final concn. 1 × 10^-5 M, tubes 6, 7", "value": "87% and 55%"},
      {"measurement": "inhibition at 2.5e-10 µM", "setting": "[1]; read-out: % Inhibn., test compound final concn., tubes 4, 5", "value": 44, "unit": "%"},
      {"measurement": "% Inhibn.", "setting": "[1]; test compound final concn., tubes 4, 5", "value": 33, "unit": "%"},
      {"measurement": "inhibition at 10 µM", "setting": "[2]; final concentration 1 × 10^-5 M", "value": 0, "unit": "%"},
      {"measurement": "inhibition at 2.5 µM", "setting": "[2]; final concentration 2.5 × 10^-6 M", "value": 5, "unit": "%"},
      {"measurement": "inhibition at 87 µM", "setting": "[2]; final concentration 8.7 × 10^-5 M", "value": 9, "unit": "%"},
      {"measurement": "% Inhibn.", "setting": "HMPPS and `synthetase`; Table 1 control tube 12", "value": 79, "unit": "%"},
      {"measurement": "% Inhibn.", "setting": "HMPPS and `synthetase`; Table 2 control tube 7", "value": 83, "unit": "%"},
      {"measurement": "complete zone inhibition, SMX (300)", "setting": "Pseudomonas aeruginosa; pteridine 3 μg/ml", "value": 9.0, "unit": "centimeters"},
      {"measurement": "zone including partial inhibition, SMX (300)", "setting": "Pseudomonas aeruginosa; pteridine 3 μg/ml", "value": 14.0, "unit": "centimeters"},
      {"measurement": "zone including partial inhibition, TMP (30)", "setting": "Pseudomonas aeruginosa; pteridine 3 μg/ml", "value": 5.0, "unit": "centimeters"},
      {"measurement": "complete zone inhibition, TMP + SMX (5) (100)", "setting": "Pseudomonas aeruginosa; pteridine 3 μg/ml", "value": 8.0, "unit": "centimeters"},
      {"measurement": "zone including partial inhibition, TMP + SMX (5) (100)", "setting": "Pseudomonas aeruginosa; pteridine 3 μg/ml", "value": 11.0, "unit": "centimeters"},
      {"measurement": "complete zone inhibition, SMX (300)", "setting": "Pseudomonas aeruginosa; pteridine 10 μg/ml", "value": 15.0, "unit": "centimeters"},
      {"measurement": "zone including partial inhibition, SMX (300)", "setting": "Pseudomonas aeruginosa; pteridine 10 μg/ml", "value": 20.0, "unit": "centimeters"},
      {"measurement": "zone including partial inhibition, TMP (30)", "setting": "Pseudomonas aeruginosa; pteridine 10 μg/ml", "value": 6.0, "unit": "centimeters"},
      {"measurement": "complete zone inhibition, TMP + SMX (5) (100)", "setting": "Pseudomonas aeruginosa; pteridine 10 μg/ml", "value": 12.0, "unit": "centimeters"},
      {"measurement": "zone including partial inhibition, TMP + SMX (5) (100)", "setting": "Pseudomonas aeruginosa; pteridine 10 μg/ml", "value": 15.0, "unit": "centimeters"},
      {"measurement": "complete zone inhibition, SMX (300)", "setting": "Staphylococcus aureus; pteridine 3 μg/ml", "value": 4.0, "unit": "centimeters"},
      {"measurement": "zone including partial inhibition, SMX (300)", "setting": "Staphylococcus aureus; pteridine 3 μg/ml", "value": 10.0, "unit": "centimeters"},
      {"measurement": "complete zone inhibition, TMP (30)", "setting": "Staphylococcus aureus; [4]", "value": 8.0, "unit": "centimeters"},
      {"measurement": "zone including partial inhibition, TMP (30)", "setting": "Staphylococcus aureus; [4]", "value": 10.0, "unit": "centimeters"},
      {"measurement": "complete zone inhibition, TMP + SMX (5) (100)", "setting": "Staphylococcus aureus; pteridine 3 μg/ml", "value": 10.0, "unit": "centimeters"},
      {"measurement": "zone including partial inhibition, TMP + SMX (5) (100)", "setting": "Staphylococcus aureus; pteridine 3 μg/ml", "value": 12.0, "unit": "centimeters"},
      {"measurement": "complete zone inhibition, SMX (300)", "setting": "Staphylococcus aureus; pteridine 10 μg/ml", "value": 5.0, "unit": "centimeters"},
      {"measurement": "zone including partial inhibition, SMX (300)", "setting": "Staphylococcus aureus; pteridine 10 μg/ml", "value": 12.0, "unit": "centimeters"},
      {"measurement": "complete zone inhibition, TMP (30)", "setting": "Staphylococcus aureus; [5]", "value": 8.5, "unit": "centimeters"},
      {"measurement": "zone including partial inhibition, TMP (30)", "setting": "Staphylococcus aureus; [5]", "value": 10.5, "unit": "centimeters"},
      {"measurement": "complete zone inhibition, TMP + SMX (5) (100)", "setting": "Staphylococcus aureus; pteridine 10 μg/ml", "value": 10.5, "unit": "centimeters"},
      {"measurement": "zone including partial inhibition, TMP + SMX (5) (100)", "setting": "Staphylococcus aureus; pteridine 10 μg/ml", "value": 12.0, "unit": "centimeters"},
      {"measurement": "complete zone inhibition, TMP (30)", "setting": "Staphylococcus aureus; pteridine 30 μg/ml in medium, TMP 30 μg/ml in well, about 6× magnification", "value": 11.0, "unit": "centimeters"},
      {"measurement": "complete zone inhibition, SMX (300)", "setting": "Staphylococcus aureus; pteridine 30 μg/ml", "value": 9.0, "unit": "centimeters"},
      {"measurement": "zone including partial inhibition, SMX (300)", "setting": "Staphylococcus aureus; pteridine 30 μg/ml", "value": 14.5, "unit": "centimeters"},
      {"measurement": "zone including partial inhibition, TMP (30)", "setting": "Staphylococcus aureus; pteridine 30 μg/ml, TMP 30 μg/ml", "value": 14.0, "unit": "centimeters"},
      {"measurement": "complete zone inhibition, TMP + SMX (5) (100)", "setting": "Staphylococcus aureus; pteridine 30 μg/ml", "value": 11.5, "unit": "centimeters"},
      {"measurement": "zone including partial inhibition, TMP + SMX (5) (100)", "setting": "Staphylococcus aureus; pteridine 30 μg/ml", "value": 14.5, "unit": "centimeters"},
      {"measurement": "zone of inhibition at 100 µg/disc", "setting": "Escherichia coli CN 314", "value": 0, "unit": "mm"},
      {"measurement": "zone of inhibition at 100 µg/disc", "setting": "Proteus vulgaris CN 329", "value": 0, "unit": "mm"}
    ]}
  ]
}
